Assay results from ChEMBL document CHEMBL1152529, “Synthesis, antifungal, haemolytic and cytotoxic activities of a series of bis(alkylpyridinium)alkanes” (Bioorg Med Chem, 2009).

Key:
[1] = Cytotoxicity against human erythrocytes assessed as hemolysis after 1 hr; type: cell-based, Erythrocyte
[2] = system: Lomentospora prolificans; assay: Antifungal activity against Scedosporium prolificans 05-203060 after 48 to 72 hrs by broth microdilution method; type: functional
[3] = Selectivity index, ratio of IC50 for human A549 cells to MIC for Cryptococcus neoformans ATCC 90112; type: functional
[4] = system: Rhizopus arrhizus; assay: Antifungal activity against Rhizopus oryzae 05-203111 after 48 to 72 hrs by broth microdilution method; type: functional
[5] = system: Scedosporium apiospermum; assay: Antifungal activity against Scedosporium apiospermum 05-203100 after 48 to 72 hrs by broth microdilution method; type: functional
[6] = system: Aspergillus fumigatus; assay: Antifungal activity against Aspergillus fumigatus ATCC 204305 after 48 to 72 hrs by broth microdilution method; type: functional
[7] = Inhibition of phospholipid fatty acyl chain hydrolysis activity of Cryptococcus neoformans var. grubii H99 PLB assessed as formation of radiolabeled free fatty acid at pH 4 by radiometric assay
[8] = system: Pichia kudriavzevii; assay: Antifungal activity against Candida krusei ATCC 6258 after 48 to 72 hrs by broth microdilution method; type: functional
[9] = Selectivity index, ratio of IC50 for MDCK cells to MIC for Cryptococcus neoformans ATCC 90112; type: functional
[10] = Selectivity index, ratio of HC50 for human erythrocytes to MIC for Candida albicans ATCC 10231; type: functional
[11] = system: Candida albicans; assay: Antifungal activity against Candida albicans ATCC 10231 after 48 to 72 hrs by broth microdilution method; type: functional
[12] = system: Curvularia australiensis; assay: Antifungal activity against Bipolaris australiensis 03-201798 after 48 to 72 hrs by broth microdilution method; type: functional
[13] = Selectivity index, ratio of HC50 for human erythrocytes to MIC for Cryptococcus neoformans ATCC 90112; type: functional
[14] = target: Phospholipase A2, major isoenzyme (Sus scrofa, UniProt P00592); assay: Inhibition of porcine pancreatic PLA2 after 1 hr by radiometric method
Sequence of Phospholipase A2, major isoenzyme (P00592 whole entry): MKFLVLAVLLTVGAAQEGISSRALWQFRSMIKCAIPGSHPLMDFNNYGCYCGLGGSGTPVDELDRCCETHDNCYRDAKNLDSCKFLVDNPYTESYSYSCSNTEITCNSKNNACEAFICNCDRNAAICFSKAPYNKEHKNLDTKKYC

[15] = system: Cryptococcus neoformans; assay: Antifungal activity against Cryptococcus neoformans ATCC 90112 after 48 to 72 hrs by broth microdilution method; type: functional
[16] = system: Exophiala spinifera; assay: Antifungal activity against Exophiala spinifera 03-200803 after 48 to 72 hrs by broth microdilution method; type: functional
[17] = system: Aspergillus terreus; assay: Antifungal activity against Aspergillus terreus 05-202844 after 48 to 72 hrs by broth microdilution method; type: functional
[18] = system: MDCK; assay: Cytotoxicity against MDCK cells after 3 hrs by MTS assay; type: cell-based; settings: Canis lupus familiaris
[19] = system: Candida parapsilosis; assay: Antifungal activity against Candida parapsilosis ATCC 22019 after 48 to 72 hrs by broth microdilution method; type: functional; settings: Lodderomyces parapsilosis
[20] = system: Aspergillus flavus; assay: Antifungal activity against Aspergillus flavus ATCC 204304 after 48 to 72 hrs by broth microdilution method; type: functional
[21] = Selectivity index, ratio of IC50 for MDCK cells to MIC for Candida albicans ATCC 10231; type: functional
[22] = Selectivity index, ratio of IC50 for human A549 cells to MIC for Candida albicans ATCC 10231; type: functional
[23] = system: Nakaseomyces glabratus; assay: Antifungal activity against Candida glabrata 04-202345 after 48 to 72 hrs by broth microdilution method; type: functional
[24] = system: A549; assay: Cytotoxicity against human A549 cells after 3 hrs by MTS assay; type: cell-based; settings: A549, 3 h

CCCCCc1cc[n+](CCCCCCCCCCCC[n+]2ccc(CCCCC)cc2)cc1.[Cl-].[Cl-]
HC50 at 1 h [1]: > 350 µM
MFC [2]: 5.5 µM
MIC [2]: 2.7 µM
Selectivity Index [3]: >40
MFC [4]: 11 µM
MIC [4]: 2.7 µM
MFC [5]: 5.5 µM
MIC [5]: 5.5 µM
MFC [6]: 87.5 µM
MIC [6]: 87.5 µM
IC50 [7]: 104 µM
MFC [8]: 22 µM
MIC [8]: 11 µM
Selectivity Index [9]: >40
Selectivity Index [10]: >100
MIC [11]: 2.7 µM
MFC ([11]; Candida albicans, ATCC 10231): 2.7 µM
MFC [12]: 11 µM
MIC [12]: 11 µM
Selectivity Index [13]: >100
IC50 [14]: > 250 µM
MIC [15]: 1.4 µM
MFC ([15]; Cryptococcus neoformans, ATCC 90112): 1.4 µM
MFC [16]: 0.7 µM
MIC [16]: 0.7 µM
MFC [17]: 22 µM
MIC [17]: 11 µM
IC50 [18]: 150 µM
MFC [19]: 2.7 µM
MIC [19]: 1.4 µM
MFC [20]: 87.5 µM
MIC [20]: 44 µM
Selectivity Index [21]: >40
Selectivity Index [22]: >40
MFC [23]: 2.7 µM
MIC [23]: 2.7 µM
IC50 [24]: 115 µM
